Some results are limits rather than exact numbers.

The subject of the first test is SARS-CoV-2. The experiment in a line: In vitro antiviral cell-based assay (live SARS-CoV-2), plaque reduction assay in VeroE6 cells. As to conditions: Severe acute respiratory syndrome coronavirus 2, Vero C1008, footnote key printed as IC50 (nM).
For `C[C@](C(=O)NC1CCC(F)(F)CC1)(c1cncnc1)N(C(=O)[C@H](F)Cl)c1ccc(-c2cncs2)cc1` (single isomer, unassigned) [Example 1a], the concentration giving a half-maximal response (EC50) (commonly the midpoint of the concentration-response curve) lay in the range of 100 to 1000 nM.

The next test deals with SARS-CoV-2 MPRO (Severe acute respiratory syndrome coronavirus 2 (2019-nCoV) (SARS-CoV-2), UniProt P0DTD1). The experiment in a line: SARS-CoV-2 Mpro enzymatic assay (FRET substrate cleavage). As to conditions: C-His6-tagged SARS-CoV-2 MPRO 25 nM, 30 min pre-incubation at RT, 60 min at 30° C., 10 doses from 25 μM; read-out: M pro IC50. The test is classed as biochemical.
As to `C[C@](C(=O)NC1CCC(F)(F)CC1)(c1cncnc1)N(C(=O)[C@H](F)Cl)c1ccc(-c2cncs2)cc1` (single isomer, unassigned) [Example 1a], the IC50 (usually the concentration that gives 50% inhibition) was less than 100 nM.

Take `C[C@@](C(=O)NC1CCC(F)(F)CC1)(c1cncnc1)N(C(=O)[C@H](F)Cl)c1cccc(OC(F)(F)F)c1` [Example 112b]: the half-inhibitory concentration (IC50) was more than 10000 nM.

Regarding `C[C@](C(=O)NC1CCC(F)(F)CC1)(c1cncnc1)N(C(=O)[C@H](F)Cl)c1ccc2c(c1)OC(F)(F)O2` [Example 113a], the half-inhibitory concentration (IC50) is less than 100 nM.

With `C[C@@](C(=O)NC1CCC(F)(F)CC1)(c1cncnc1)N(C(=O)[C@H](F)Cl)c1ccc2c(c1)OC(F)(F)O2` [Example 113b], the 50% inhibitory concentration (IC50) is more than 10000 nM.

Consider `C[C@](C(=O)NC1CCOCC1)(c1cncnc1)N(C(=O)C(Cl)Cl)c1ccc(OC(F)(F)Cl)cc1` [Example 115a], for which the half-inhibitory concentration (IC50) was less than 100 nM.

Take `C[C@@](C(=O)NC1CCOCC1)(c1cncnc1)N(C(=O)C(Cl)Cl)c1ccc(OC(F)(F)Cl)cc1` [Example 115b]: the half-maximal inhibitory concentration (IC50) was 1000 to 10000 nM.

These data come from patent publication US11731944B2, “SARS-CoV-2 inhibitors for treating coronavirus infections” (priority 2021, dated 2023).
